Measured values as given in ChEMBL document CHEMBL4813937, “Jatrophane Diterpenoids from Euphorbia peplus as Multidrug Resistance Modulators with Inhibitory Effects on the ATR-Chk-1 Pathway” (J Nat Prod, 2021).
Active and inactive are the calls of the source. No cut-off for these calls is given here.

Test system: not listed separately
Assay: Inhibition of ATR/Chk1 pathway in human A549 cells assessed as suppression of […]-induced phosphorylation of Chk1 on serine-345 residue at 20 uM incubated for 12 hrs by Western blotting analysis
Assay type: cell-based
In the case of C=C1[C@H](OC(C)=O)[C@H]2[C@@H](OC(=O)c3ccccc3)[C@](C)(OC(C)=O)C[C@]2(O)C(=O)[C@@H](C)/C=C/C(C)(C)C(=O)[C@H](OC(C)=O)[C@H]1OC(C)=O, the inhibition was “Active”. For C=C1[C@H](OC(=O)C(C)C)[C@@H](OC(C)=O)[C@@H](OC(C)=O)C(C)(C)/C=C/[C@H](C)[C@H](OC(C)=O)[C@@]2(O)C[C@@](C)(OC(C)=O)[C@H](OC(=O)c3ccccc3)[C@@H]2[C@H]1OC(C)=O, the inhibition was “Active”. For C=C1[C@H](OC(C)=O)[C@H]2[C@@H](OC(=O)c3ccccc3)[C@](C)(O)C[C@]2(O)C(=O)[C@@H](C)/C=C/C(C)(C)C(=O)[C@H](OC(C)=O)[C@H]1OC(C)=O, the inhibition was “Active”. In the case of C=C1[C@H](OC(C)=O)[C@@H](OC(C)=O)[C@@H](OC(C)=O)C(C)(C)/C=C/[C@H](C)[C@H](OC(C)=O)[C@@]2(O)C[C@@](C)(OC(C)=O)[C@H](OC(=O)c3ccccc3)[C@@H]2[C@H]1OC(C)=O, the inhibition was “Active”. With C=C1[C@H](OC(C)=O)CC(=O)C(C)(C)/C=C/[C@H](C)C(=O)[C@@]2(O)C[C@@](C)(O)[C@H](OC(=O)c3ccccc3)[C@@H]2[C@H]1OC(C)=O the inhibition was “Active”.

Test system: A549
Assay: Induction of apoptosis in human A549 cells assessed as increase in PARP cleavage at 25 uM incubated for 48 hrs by Western blotting analysis
Assay type: functional, cell-based
For CC[C@@]1(O)C(=O)OCc2c1cc1n(c2=O)Cc2cc3ccccc3nc2-1, the Activity was “inactive”.
